The supplement of paper PMC8967900

Tests used:
Experiment in all cases: selective drug sensitivity score (sDSS, relative to normal bone marrow) (sDSS (score)); higher = more potent and effective on the cell line relative to normal bone marrow cells
Conditions in all cases: 72 h
COG-LL-355h = system: COG-LL-355h
SUP-B15 = system: SUP-B15
COG-LL-319h = system: COG-LL-319h
HPB-ALL = system: HPB-ALL
TMD5 = system: TMD5
MOLT-14 = system: MOLT-14
697 = system: 697
COG-LL-402h = system: COG-LL-402h
MOLT-4 = system: MOLT-4
RCH-ACV = system: RCH-ACV
NALM-16 = system: NALM-16
PEER = system: PEER
KASUMI-9 = system: KASUMI-9
JURKAT = system: JURKAT
NALM-6 = system: NALM-6
KASUMI-2 = system: KASUMI-2
RPMI-8402 = system: RPMI-8402
MN-60 = system: MN-60
ALL-PO = system: ALL-PO
MOLT-16 = system: MOLT-16
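Also: ALL cell lines in 384-well plates, five doses spanning 10,000-fold, each plate scaled between vehicle and 100 µmol/L benzalkonium chloride controls, sDSS an adapted area-under-curve metric.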

Structure (SMILES)	selective drug sensitivity score (COG-LL-355h)	selective drug sensitivity score (SUP-B15)	selective drug sensitivity score (COG-LL-319h)	selective drug sensitivity score (HPB-ALL)	selective drug sensitivity score (TMD5)	selective drug sensitivity score (MOLT-14)	selective drug sensitivity score 697	selective drug sensitivity score (COG-LL-402h)	selective drug sensitivity score (MOLT-4)	selective drug sensitivity score (RCH-ACV)	selective drug sensitivity score (NALM-16)	selective drug sensitivity score (PEER)	selective drug sensitivity score (KASUMI-9)	selective drug sensitivity score (JURKAT)	selective drug sensitivity score (NALM-6)	selective drug sensitivity score (KASUMI-2)	selective drug sensitivity score (RPMI-8402)	selective drug sensitivity score (MN-60)	selective drug sensitivity score (ALL-PO)	selective drug sensitivity score (MOLT-16)
CNC(=O)c1ccc2cc([C@@]3(O)CCn4cncc43)ccc2c1 [Orteronel] (top concentration 10000 nM)	0	2.1	4.9	0	0	0	0	0	0	0	0	0	0	0	0	4.6	0	0	0	0
COc1cc2/c(=N/c3ccc(Br)cc3F)nc[nH]c2cc1OCC1CCN(C)CC1 [Vandetanib] (top concentration 1000 nM)	-0.22	1.08	-0.22	-0.22	5.38	0.48	0.18	0.18	-0.22	-0.22	-0.22	1.38	-0.22	-0.22	-0.22	-0.22	-0.22	-0.22	-0.22	-0.22
COc1cc2c(cc1OCCCN1CCCC1)N=C(N)C21CCC1 [A-366] (top concentration 25000 nM)	0.76	-1.14	3.16	-1.84	-1.84	3.16	-1.34	-1.84	1.36	0.06	-1.84	1.46	2.36	-1.04	-1.84	-1.84	4.06	-1.84	1.76	3.46
Cc1cc(C)c(CNC(=O)c2cc(-c3ccc(CN4CCOCC4)cc3)cc3c2cnn3C2CCCC2)c(=O)[nH]1 [EPZ-5687] (top concentration 10000 nM)	-0.36	-0.36	-0.36	-0.36	5.74	-0.36	-0.36	-0.36	-0.36	-0.36	-0.36	-0.36	3.14	-0.36	-0.36	-0.36	-0.16	-0.36	0.24	-0.36
CCN(CC)CCN(Cc1ccc(-c2ccc(C(F)(F)F)cc2)cc1)C(=O)Cn1c(SCc2ccc(F)cc2)nc(=O)c2c1CCC2 [Darapladib] (top concentration 1000 nM)	-1.42	-1.42	-1.42	-1.42	6.98	-1.42	-1.42	-1.42	-1.42	7.28	-0.52	-1.42	-1.32	-1.42	-1.42	0.98	-1.32	-1.42	-1.42	3.28
C[C@@H]1C[C@H]2[C@@H]3CCC4=CC(=O)C=C[C@]4(C)[C@@]3(F)[C@@H](O)C[C@]2(C)[C@@]1(O)C(=O)CO [Dexamethasone] (top concentration 10000 nM)	30.7	43	26.5	3.18	14.9	-1.52	32.2	29.3	1.48	38.8	-1.52	-0.92	1.78	-1.52	30.8	14.6	3.18	-0.52	43.2	9.68
CC(C)(C)C[C@@H]1N[C@@H](C(=O)N[C@H]2CC[C@H](O)CC2)[C@H](c2cccc(Cl)c2F)[C@]12C(=O)Nc1cc(Cl)ccc12 (top concentration 10000 nM)	8.46	20.4	13.9	-3.44	9.16	9.56	11.2	13.4	12.9	12.4	-3.54	-2.04	16.4	-4.74	6.26	11.7	-3.34	-0.74	-1.84	12.5
COc1cc(C)[nH]c(=O)c1CNC(=O)c1c(C)n([C@H](C)C2CCOCC2)c2ccccc12 [CPI-360] (top concentration 10000 nM)	0	0	0	0	0	0	0	0	0	0	0	0	0	0.1	0	0	0	0	0	0
CN1CCC(COc2cnc(-c3cccc(Cn4nc(-c5cccc(C#N)c5)ccc4=O)c3)nc2)CC1 [Tepotinib] (top concentration 1000 nM)	-0.08	-0.08	2.22	-0.08	-0.08	-0.08	-0.08	-0.08	-0.08	0.42	-0.08	0.02	-0.08	-0.08	-0.08	2.02	-0.08	-0.08	-0.08	-0.08
CC(C)C(=O)Nc1ccc([N+](=O)[O-])c(C(F)(F)F)c1 [Flutamide] (top concentration 10000 nM)	-0.56	-0.56	-0.56	-0.56	6.64	-0.56	1.94	-0.56	-0.46	0.14	-0.56	0.94	1.64	1.84	-0.46	0.34	0.74	-0.56	-0.56	0.34
COc1cc2c(N3CCN(C(=O)Nc4ccc(OC(C)C)cc4)CC3)ncnc2cc1OCCCN1CCCCC1 [Tandutinib] (top concentration 1000 nM)	0	0.5	0	0	0	0	0	0	0	0	0.8	0	0	0	0	0	0	0	3.1	0
COc1cc2ncnc(Nc3ccc(F)c(Cl)c3)c2cc1NC(=O)/C=C/CN1CCCCC1 [Dacomitinib] (top concentration 1000 nM)	1.06	-1.34	-1.24	-1.54	1.46	0.86	-0.34	0.96	-1.54	0.16	-1.54	-0.14	0.96	-1.64	-1.64	-1.64	-0.34	-1.64	3.06	-1.04
COc1cc2c(Oc3ccc4[nH]c(C)cc4c3F)ncnc2cc1OCCCN1CCCC1 [Cediranib] (top concentration 1000 nM)	0	0	0	0	3.6	0	0.9	0	0.1	0	0	0	3.6	0	0	0	0	0	0	0
CNC(=O)c1ccc(-c2cnc3ncc(Cc4ccc5ncccc5c4)n3n2)cc1F [Capmatinib] (top concentration 1000 nM)	0.04	-0.06	14.9	-0.06	-0.06	-0.06	-0.06	0.74	-0.06	-0.06	-0.06	-0.06	-0.06	-0.06	0.24	-0.06	-0.06	-0.06	-0.06	0.04
CS(=O)(=O)CCNCc1ccc(-c2ccc3ncnc(Nc4ccc(OCc5cccc(F)c5)c(Cl)c4)c3c2)o1 [Lapatinib] (top concentration 1000 nM)	0	0	0	0	0	0	0	0	0	0	0	0	0.2	0	0	0	0	0	0	0
CCCN(CCC)C(=O)C1=Cc2ccc(-c3ccc(C(=O)N4CCCC4)cc3)cc2N=C(N)C1 [Motolimod] (top concentration 10000 nM)	-2.38	-3.58	-4.18	-3.38	-3.48	-4.28	-2.68	-4.48	-4.08	-1.68	-4.48	-3.18	1.22	-2.58	-3.38	-4.48	-2.28	-4.48	-3.88	-2.78
COCCOc1cnc2ccn([C@H](C)c3nnc4c(F)cc(-c5cnn(C)c5)cn34)c(=O)c2c1 [AMG-337] (top concentration 10000 nM)	-0.06	-0.06	-0.06	1.54	-0.06	-0.06	-0.06	-0.06	-0.06	-0.06	-0.06	-0.06	0.14	-0.06	-0.06	2.14	-0.06	-0.06	-0.06	-0.06
C=CCN(/C=C1/C(=O)O[C@H](COC)[C@@]2(C)C1=C(O)C(=O)C1=C2[C@H](OC(C)=O)C[C@]2(C)C(=O)CC[C@@H]12)CC=C [Sonolisib] (top concentration 10000 nM)	0.94	-0.76	4.24	-0.76	-0.76	-0.76	0.24	-0.76	-0.76	2.14	-0.56	-0.76	0.14	-0.76	-0.56	-0.76	-0.76	-0.76	2.44	-0.76
